Test results: patent US20240262844A1, “PYRIDINIUM SALTS AND METHODS OF USE” (UNIVERSITY OF WYOMING, priority 2023, published 2024)
Where “and” joins values, the source holds several entries; their conditions need not be identical. Equal values may be shown once. Where a name gives a salt, the structure may show the parent alone.

Key:
[1] = target: T1, lysozyme (14.3 kDa) (Gallus gallus, UniProt P00698); experiment: Photochemical labeling of lysozyme (LC/MS); format: biochemical, chicken; details: for irradiation time to complete reactivity: lysozyme labeling
T1 construct: Lysozyme (from chicken egg white, >40,000 units/mg of protein); purchased Sigma Aldrich; host or cells: chicken egg white
T1 sequence (P00698 19-147): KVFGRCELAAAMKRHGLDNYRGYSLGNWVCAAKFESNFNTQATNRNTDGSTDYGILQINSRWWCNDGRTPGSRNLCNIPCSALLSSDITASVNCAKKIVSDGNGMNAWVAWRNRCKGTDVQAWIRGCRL
Method: General Procedure B: Photochemical Irradiation of Peptides and Proteins: To a 2 mL Pyrex LC/MS vial (Thermo model #03-391-39) were sequentially added solutions containing the desired biomolecule, glutathione (GSH), pyridinium salt, and ammonium acetate (NH4OAc). The resulting solution was diluted to a final volume of 500 μL and then sparged using nitrogen for a minimum of 30 minutes prior to irradiation. The actively sparging solution was then placed in an EvoluChem™ PhotoRedOx Box photoreactor that was equipped with a Kessil, PR160 427 nm LED Lamp and was then irradiated (100% lamp intensity) for the designated time at room temperature while maintaining active sparging. The resultant reaction mixture was then analyzed directly by LC/MS. Analysis of labeling outcomes using LC/MS was performed either by extracted ion chromatogram intensities (method A) or by integrating the area under the peaks associated with peptide content (method B). These values were totaled, and estimated percentages were assigned according to relative intensities of peaks or ion counts.
Labeling of Lysozyme with Pyridinium Salt 2a (Lysozyme-2a Conjugate). Labeling of lysozyme (14.3 kDa) with the pyridinium salt 2a was performed by following general procedure B using the following solutions: lysozyme (27 μL, 182 μM, 10 μM final concentration), pyridinium salt 2a (200 μL, 500 μM, 200 μM final concentration), NH4+OAc (100 μL, 100 mM, pH=6.9, 20 mM final concentration), glutathione (15 μL, 10 mM, 300 μM final concentration), and water (158 μL) with a 100% intensity irradiation time of 60 minutes. The reaction mixture was analyzed directly by LC/MS using method A and was estimated to have proceeded in >95% conversion and a 10.9:1 mono:di labeled ratio and 10% glutathionylation of all unlabeled and labeled protein content was observed.
Labeling of Lysozyme with Pyridinium Salt 2b (Lysozyme-2b Conjugate). Labeling of lysozyme (14.3 kDa) with the pyridinium salt 2b was performed by following general procedure B using the following solutions: lysozyme (19 μL, 262 μM, 10 μM final concentration), 2b (181 μL, 554 μM, 200 μM final concentration), NH4OAc (50 μL, 200 mM, pH=6.9, 20 mM final concentration), glutathione (50 μL, 3 mM, 300 μM final concentration), and water (200 μL) with a 100% intensity irradiation time of 10 minutes. The reaction mixture was analyzed directly by LC/MS using method A and was estimated to have proceeded with 83% conversion. Partial oxidation at biotin obfuscated estimation of both oxidation and glutathionylation. Lysozyme-2b conjugate (retention time (Tr)=2.80-5.17 min).
Labeling of Lysozyme with Pyridinium Salt 2c (Lysozyme-2c Conjugate). Labeling of lysozyme (14.3 kDa) with the pyridinium salt 2c was performed by following general procedure B using the following solutions: lysozyme (19 μL, 262 μM, 10 μM final concentration), pyridinium salt 2c(367 μL, 680 μM, 500 μM final concentration), NH4OAc (50 μL, 200 mM, pH=6.9, 20 mM final concentration), glutathione (50 μL, 3 mM, 300 μM final concentration), and water (14 μL) with a 100% intensity irradiation time of 10 minutes. The reaction mixture was analyzed directly by LC/MS using method A and was estimated to have proceeded with 85% conversion and a 3.7:1 mono:di labeled ratio and 10% glutathionylation of all protein content was observed. Lysozyme-2c conjugate (retention time (Tr)=3.11-5.07 min).
Labeling of Lysozyme with Pyridinium Salt 2d (Lysozyme-2d Conjugate). Labeling of lysozyme (14.3 kDa) with the pyridinium salt 2d was performed by following general procedure B using the following solutions: Lysozyme (16.8 μL, 0.297 mM solution in H2O, final concentration […]), pyridinium salt 2d (91.8 μL, 1.09 mM solution in CH3CN/H2O (2:3), final concentration 200 μM), NH4OAc (50 μL, 200 mM in H2O, final concentration 20 mM, pH 6.9), glutathione (15 μL, 10 mMsolution in H2O, final concentration 300 μM), and water (326.4 μL) with a 100% intensity irradiation time of 20 minutes. […]

[2] = Fluorescence lifetime and emission measurements; format: physicochemical
Method: The emission spectra were generated by excitation of a 10 μM solution of either pyridinium salt 2a or pyridinium salt 2b in H2O. Analyses were performed at 375 nm excitation with an emission slit width of 5 nm and an excitation slit width of 5 nm. The emission wavelength was gathered from 400 nm to 600 nm.
FIGS. 9A-9D show fluorescence decay spectra of pyridinium salts 2a and 2b in selected solvents according to at least one embodiment of the present disclosure. Specifically, FIG. 9A is a fluorescence decay spectrum of pyridinium salt 2a in 1,2-dichloroethane, FIG. 9B is a fluorescence decay spectrum of pyridinium salt 2a in CH3CN, FIG. 9C is a fluorescence decay spectrum of pyridinium salt 2a in H2O, and FIG. 9D is a fluorescence decay spectrum of pyridinium salt 2b in H2O. The fluorescent decay spectra were generated with a 1-10 μM solution of pyridinium salt (10 μM for H2O and 1 μM for other solvents) using a GG420 long pass filter and a 375 nm excitation wavelength. The instrument response factor was measured using a highly diluted solution of LUDOX AS-30 colloidal silica in water and a ND1.0 filter. The concentration of LUDOX and the emission slit width were adjusted until the intensity of the instrument response function (IRF) was similar to the fluorescent decay intensity. The procedure given in the EasyLife X User's Manual was followed.

Row | Structure (SMILES) | irradiation time to complete reactivity [1] | relative fluorescence quantum yield (ΦF1) pyridinium salt 2b: pyridinium salt 2a ([2]; 10 μM in H2O, 375 nm excitation) | fluorescence lifetime τ1 ([2]; water, 375 nm excitation) | fluorescence lifetime τ2 ([2]; water, 375 nm excitation) | conversion ([1]; 10 μM lysozyme, 200 μM pyridinium salt 2a, 300 μM glutathione, 20 mM NH4OAc pH 6.9, 427 nm, 60 minutes) | glutathionylation of all unlabeled and labeled protein content ([1]; 200 μM pyridinium salt 2a, 300 μM glutathione, 60 minutes irradiation) [%] | fluorescence lifetime τ1 ([2]; 1,2-dichloroethane, 375 nm excitation) [ns] | fluorescence lifetime τ1 ([2]; acetonitrile, 375 nm excitation) [ns] | diffusion distance of the excited state (2a*) ([2]; aqueous systems) [Å] | glutathionylation of all unlabeled and labeled protein content ([1]; 200 μM pyridinium salt 2d, 300 μM glutathione, 20 minutes irradiation)
1 | COc1ccc2cc(-c3cc(C)[n+](N(C)C(=O)OCCCCC[C@H]4SC[C@H]5NC(=O)N[C@H]54)c(C)c3)ccc2c1 (stereo in doubt) [Pyridinium salt 2b, 4-(6-methoxynaphthalen-2-yl)-2,6-dimethyl-1-(methyl(((5-((3aR,4R,6aS)-2-oxohexahydro-1H-thieno[3,4-d]imidazol-4-yl)pentyl)oxy)carbonyl)amino)pyridin-1-ium tetrafluoroborate] | less than 10 min | 3.3 | 0.5 ns | 2.8 ns |  |  |  |  |  | 
2 | COC(=O)N(C)[n+]1c(C)cc(-c2ccc3cc(OC)ccc3c2)cc1C [Pyridinium salt 2a, 1-((methoxycarbonyl)(methyl)amino)-4-(6-methoxynapthalen-2-yl)-2,6-dimethylpyridin-1-ium tetrafluoroborate] | about 60 min |  | 0.2548 ns and 0.3 ns | 3.399 ns and 3.4 ns | > 95% and 94% | 10 | 4.1 | 3.3 | ≤ 30 | 
3 | COc1ccc2cc(-c3cc(C)[n+](N(C)C(=O)OCCCCCCN=[N+]=[N-])c(C)c3)ccc2c1 [Pyridinium salt 2d, 1-((((6-azidohexyl)oxy)carbonyl)(methyl)amino)-4-(6-methoxynaphthalen-2-yl)-2,6-dimethylpyridin-1-ium tetrafluoroborate] |  |  |  |  |  |  |  |  |  | 3% and 2%
